Each molecule was assayed against vanilloid receptor 1 (VR1/TRPV1 receptor) (Homo sapiens, UniProt Q8NER1) (assay: Functional FLIPR Ca2+ influx assay on vanilloid receptor 1, capsaicin (Cap) stimulus). Conditions: Ki from IC50 by Cheng-Prusoff, read-out: (f) Ki (human being) [nM], Cap.
Assay type: cell-based
Experimental: Furthermore, preference may be given to compounds according to the invention that cause a 50 percent displacement of capsaicin, which is present at a concentration of 100 nM, in a FLIPR assay with CHO K1 cells which were transfected with the human VR1 gene at a concentration of less than 2,000 nM, preferably less than 1,000 nM, particularly preferably less than 300 nM, most particularly preferably less than 100 nM, even more preferably less than 75 nM, additionally preferably less than 50 nM, most preferably less than 10 nM.
In the process, the Ca^2+ influx is quantified in the FLIPR assay with the aid of a Ca^2+-sensitive dye (type Fluo-4, Molecular Probes Europe BV, Leiden, the Netherlands) in a fluorescent imaging plate reader (FLIPR, Molecular Devices, Sunnyvale, USA), as described hereinafter.
Pharmacological Methods I. Functional Testing Carried Out on the Vanilloid Receptor 1 (VRI/TRPV1 Receptor) […]
The number of cells in the suspension is set to 3×10^5 per mL and 150 μL of this suspension are in each case introduced into a recess in the cell culture plates coated as described hereinbefore. In the incubator the plates are left for two to three days at 37° C., 5% by volume of CO2 and 95% relative humidity. Subsequently, the cells are loaded with 2 μM of Fluo-4 and 0.01% by volume of Pluronic F127 (Molecular Probes Europe BV, Leiden, the Netherlands) in HBSS buffer (Hank's buffered saline solution, Gibco Invitrogen GmbH, Karlsruhe, Germany) for 30 min at 37° C., washed 3 times with HBSS buffer and after further incubation for 15 minutes at room temperature used for Ca^2+ measurement in a FLIPR assay. The Ca^2+-dependent fluorescence is in this case measured before and after the addition of substances (λex=488 nm, λem=540 nm). Quantification is carried out by measuring the highest fluorescence intensity (FC, fluorescence counts) over time.
The FLIPR protocol consists of 2 substance additions. First the compounds to be tested (10 μM) are pipetted onto the cells and the Ca^2+ influx is compared with the control (capsaicin 10 μM). This provides the result in % activation based on the Ca^2+ signal after the addition of 10 μM of capsaicin (CP). After 5 minutes' incubation, 100 nM of capsaicin are applied and the Ca^2+ influx is also determined.
Desensitising agonists and antagonists lead to suppression of the Ca^2+ influx. The % inhibition is calculated compared to the maximum achievable inhibition with 10 μM of capsazepine.
Triple analyses (n=3) are carried out and repeated in at least 3 independent experiments (N=4).
Starting from the percentage displacement caused by different concentrations of the compounds to be tested of general formula I, IC50 inhibitory concentrations which cause a 50-percent displacement of capsaicin were calculated. K, values for the test substances were obtained by conversion by means of the Cheng-Prusoff equation (Cheng, Prusoff; Biochem. Pharmacol. 22, 3099-3108, 1973).
The affinity of the compounds according to the invention for the vanilloid receptor 1 (VR1/TRPV1 receptor) was determined as described herein before (pharmacological method I).
The value after the “@” symbol indicates the concentration at which the inhibition (as a percentage) was respectively determined.

Question: With “2-(3-methyl-4-(methylsulfonamidomethyl)phenyl)-N-((2-m-tolyl-6-(trifluoromethyl)pyridin-3-yl)methyl)propanamide [Example 97]” as the molecule, how does the Ki read?
Answer: The Ki was 4 nM.

Question: For `Cc1cccc(-c2nc(C(F)(F)F)ccc2CNC(=O)Nc2ccc(CNS(C)(=O)=O)cc2)c1` [Example 2, N-(4-(3-((2-m-tolyl-6-(trifluoromethyl)pyridin-3-yl)methyl)ureido)benzyl)methanesulfonamide], which Ki is on record?
Answer: Its Ki is 10 nM.

Question: `Cc1cccc(-c2nc(C(F)(F)F)ccc2CNC(=O)C(C)c2ccc(CNS(C)(=O)=O)cc2)c1` (stereo not shown) [Example 4, 2-(4-(methylsulfonamidomethyl)phenyl)-N-((2-m-tolyl-6-(trifluoromethyl)pyridin-3-yl)methyl)propanamide] was tested. Which Ki did it give?
Answer: Its Ki is 66 nM.

Question: With `CC(C(=O)NCc1ccc(C(F)(F)F)nc1-c1ccccc1)c1ccc(CNS(C)(=O)=O)c(F)c1` (stereo not shown) [Example 5, 2-(3-fluoro-4-(methylsulfonamidomethyl)phenyl)-N-((2-phenyl-6-(trifluoromethyl)pyridin-3-yl)methyl)propanamide] as the molecule, how does the Ki read?
Answer: Its Ki is 31 nM.

Question: Which Ki does the source give for `CC(C(=O)NCc1ccc(C(F)(F)F)nc1-c1cccc(F)c1)c1ccc(CNS(C)(=O)=O)c(F)c1` (stereo not shown) [Example 7, 2-(3-fluoro-4-(methylsulfonamidomethyl)phenyl)-N-((2-(3-fluorophenyl)-6-(trifluoromethyl)pyridin-3-yl)methyl)propanamide] here?
Answer: Its Ki is 61 nM.

Question: Which Ki does the source give for `CC(C(=O)NCc1ccc(C(F)(F)F)nc1-c1ccc(F)cc1)c1ccc(CNS(C)(=O)=O)c(F)c1` (stereo not shown) [Example 8, 2-(3-fluoro-4-(methylsulfonamidomethyl)phenyl)-N-((2-(4-fluorophenyl)-6-(trifluoromethyl)pyridin-3-yl)methyl)propanamide] here?
Answer: Its Ki is 66 nM.

Question: Which Ki does the source give for `CC(C(=O)NCc1ccc(C(F)(F)F)nc1-c1cccc(F)c1F)c1ccc(CNS(C)(=O)=O)c(F)c1` (stereo not shown) [Example 9, N-((2-(2,3-difluorophenyl)-6-(trifluoromethyl)pyridin-3-yl)methyl)-2-(3-fluoro-4-(methylsulfonamidomethyl)phenyl)propanamide] here?
Answer: The Ki was 47 nM.

Question: `CC(C(=O)NCc1ccc(C(F)(F)F)nc1-c1ccc(F)c(F)c1)c1ccc(CNS(C)(=O)=O)c(F)c1` (stereo not shown) [Example 10, N-((2-(3,4-difluorophenyl)-6-(trifluoromethyl)pyridin-3-yl)methyl)-2-(3-fluoro-4-(methylsulfonamidomethyl)phenyl)propanamide] was tested. Which Ki did it give?
Answer: Its Ki is 17 nM.

Question: How did the Ki turn out when `CC(C(=O)NCc1ccc(C(F)(F)F)nc1-c1cc(F)cc(F)c1)c1ccc(CNS(C)(=O)=O)c(F)c1` (stereo not shown) [Example 11, N-((2-(3,5-difluorophenyl)-6-(trifluoromethyl)pyridin-3-yl)methyl)-2-(3-fluoro-4-(methylsulfonamidomethyl)phenyl)propanamide] was run?
Answer: The Ki was 41 nM.

Question: With `CC(C(=O)NCc1ccc(C(F)(F)F)nc1-c1cc(F)ccc1F)c1ccc(CNS(C)(=O)=O)c(F)c1` (stereo not shown) [Example 12, N-((2-(2,5-difluorophenyl)-6-(trifluoromethyl)pyridin-3-yl)methyl)-2-(3-fluoro-4-(methylsulfonamidomethyl)phenyl)propanamide] as the molecule, how does the Ki read?
Answer: Its Ki is 42 nM.

Question: For `Cc1ccc(-c2nc(C(F)(F)F)ccc2CNC(=O)C(C)c2ccc(CNS(C)(=O)=O)c(F)c2)cc1F` (stereo not shown) [Example 13, 2-(3-fluoro-4-(methylsulfonamidomethyl)phenyl)-N-((2-(3-fluoro-4-methylphenyl)-6-(trifluoromethyl)pyridin-3-yl)methyl)propanamide], which Ki is on record?
Answer: The Ki was 26 nM.

Question: For `COc1ccc(-c2nc(C(F)(F)F)ccc2CNC(=O)C(C)c2ccc(CNS(C)(=O)=O)c(F)c2)cc1F` (stereo not shown) [Example 14, 2-(3-fluoro-4-(methylsulfonamidomethyl)phenyl)-N-((2-(3-fluoro-4-methoxyphenyl)-6-(trifluoromethyl)pyridin-3-yl)methyl)propanamide], which Ki is on record?
Answer: The Ki was 68 nM.

Question: For `CC(C(=O)NCc1ccc(C(F)(F)F)nc1-c1cccc(Cl)c1)c1ccc(CNS(C)(=O)=O)c(F)c1` (stereo not shown) [Example 15, N-((2-(3-chlorophenyl)-6-(trifluoromethyl)pyridin-3-yl)methyl)-2-(3-fluoro-4-(methylsulfonamidomethyl)phenyl)propanamide], which Ki is on record?
Answer: Its Ki is 10 nM.

Question: With `CC(C(=O)NCc1ccc(C(F)(F)F)nc1-c1ccc(F)c(Cl)c1)c1ccc(CNS(C)(=O)=O)c(F)c1` (stereo not shown) [Example 16, N-((2-(3-chloro-4-fluorophenyl)-6-(trifluoromethyl)pyridin-3-yl)methyl)-2-(3-fluoro-4-(methylsulfonamidomethyl)phenyl)propanamide] as the molecule, how does the Ki read?
Answer: The Ki was 5 nM.

Question: For `C[C@H](C(=O)NCc1ccc(C(F)(F)F)nc1-c1ccc(F)c(Cl)c1)c1ccc(CNS(C)(=O)=O)c(F)c1` [Example 17, (S)—N-((2-(3-chloro-4-fluorophenyl)-6-(trifluoromethyl)pyridin-3-yl)methyl)-2-(3-fluoro-4-(methylsulfonamidomethyl)phenyl)propanamide], which Ki is on record?
Answer: The Ki was 4 nM.

Question: `Cc1cccc(-c2nc(C3CC3)ccc2CNC(=O)C(C)c2ccc(CNS(C)(=O)=O)c(F)c2)c1` (stereo not shown) [Example 20, N-((6-cyclopropyl-2-m-tolylpyridin-3-yl)methyl)-2-(3-fluoro-4-(methylsulfonamidomethyl)phenyl)propanamide] was tested. Which Ki did it give?
Answer: The Ki was 45 nM.

Question: With `Cc1cccc(-c2cc(C(C)(C)C)ccc2CNC(=O)C(C)c2ccc(CNS(C)(=O)=O)c(F)c2)c1` (stereo not shown) [Example 21, N-((5-tert-butyl-3′-methylbiphenyl-2-yl)methyl)-2-(3-fluoro-4-(methylsulfonamidomethyl)phenyl)propanamide] as the molecule, how does the Ki read?
Answer: The Ki was 37 nM.

Question: `Cc1cccc(-c2cc(C(F)(F)F)ccc2CNC(=O)C(C)c2ccc(CNS(C)(=O)=O)c(F)c2)c1` (stereo not shown) [Example 22, 2-(3-fluoro-4-(methylsulfonamidomethyl)phenyl)-N-((3′-methyl-5-(trifluoromethyl)biphenyl-2-yl)methyl)propanamide] was tested. Which Ki did it give?
Answer: Its Ki is 23 nM.

Question: With `Cc1cccc(-c2nc(C(C)(C)C)ccc2CNC(=O)C(C)c2ccc(CNS(C)(=O)=O)c(F)c2)c1` (stereo not shown) [Example 23, N-((6-tert-butyl-2-m-tolylpyridin-3-yl)methyl)-2-(3-fluoro-4-(methylsulfonamidomethyl)phenyl)propanamide] as the molecule, how does the Ki read?
Answer: Its Ki is 24 nM.

Question: `Cc1cccc(-c2nc(C(F)(F)F)ccc2CNC(=O)C(C)c2ccc(CNS(C)(=O)=O)c(F)c2)c1` (stereo not shown) [Example 24, 2-(3-fluoro-4-(methylsulfonamidomethyl)phenyl)-N-((2-m-tolyl-6-(trifluoromethyl)pyridin-3-yl)methyl)propanamide] was tested. Which Ki did it give?
Answer: The Ki was 6 nM.

Question: How did the Ki turn out when `Cc1cccc(-c2nc(C(F)(F)F)ccc2CNC(=O)[C@@H](C)c2ccc(CNS(C)(=O)=O)c(F)c2)c1` [Example 25, (S)-2-(3-fluoro-4-(methylsulfonamidomethyl)phenyl)-N-((2-m-tolyl-6-(trifluoromethyl)pyridin-3-yl)methyl)propanamide] was run?
Answer: The Ki was 15 nM.

Same assay, conditions: inhibition at 1 μM, read-out: (f) inhibition (human being), Cap, @1 μM

Question: Which inhibition at 1 µM does the source give for `Cc1ccccc1-c1nc(C(F)(F)F)ccc1CNC(=O)C(C)c1ccc(CNS(C)(=O)=O)c(F)c1` (stereo not shown) [Example 19, 2-(3-fluoro-4-(methylsulfonamidomethyl)phenyl)-N-((2-o-tolyl-6-(trifluoromethyl)pyridin-3-yl)methyl)propanamide] here?
Answer: The inhibition at 1 µM was 18%.

Same assay, conditions: inhibition at 5 μM, read-out: (f) inhibition (human being), Cap, @5 μM

Question: With `Cc1cccc(-c2nc(C(F)(F)F)ccc2CNC(=O)C(C)c2cccc(CNS(C)(=O)=O)c2)c1` (stereo not shown) [Example 1, 2-(3-(methylsulfonamidomethyl)phenyl)-N-((2-m-tolyl-6-(trifluoromethyl)pyridin-3-yl)methyl)propanamide] as the molecule, how does the inhibition at 5 µM read?
Answer: The inhibition at 5 µM was 44%.

Question: With `CC(C(=O)NCc1ccc(C(F)(F)F)nc1-c1ccccc1F)c1ccc(CNS(C)(=O)=O)c(F)c1` (stereo not shown) [Example 6, 2-(3-fluoro-4-(methylsulfonamidomethyl)phenyl)-N-((2-(2-fluorophenyl)-6-(trifluoromethyl)pyridin-3-yl)methyl)propanamide] as the molecule, how does the inhibition at 5 µM read?
Answer: The inhibition at 5 µM was 37%.

Question: Which inhibition at 5 µM does the source give for `C[C@@H](C(=O)NCc1ccc(C(F)(F)F)nc1-c1ccc(F)c(Cl)c1)c1ccc(CNS(C)(=O)=O)c(F)c1` [Example 18, (R)—N-((2-(3-chloro-4-fluorophenyl)-6-(trifluoromethyl)pyridin-3-yl)methyl)-2-(3-fluoro-4-(methylsulfonamidomethyl)phenyl)propanamide] here?
Answer: The inhibition at 5 µM was 42%.
